Source: ChEMBL document CHEMBL3886351, “TrkA kinase inhibitors, compositions and methods thereof” (2015)

Target: High affinity nerve growth factor receptor (Homo sapiens, UniProt P04629)
Assay: Kinase Activity Assay: TrkA kinase activity was measured as the ability of the enzyme to phosphorylate a fluorescently labeled peptide substrate. Buffer salts, reagents, and fluorescently labeled peptides were purchased from Carna Biosciences and were of the highest quality available (QSS Assist TRKA_MSA Kit). Enzyme was purchased from Cell Signaling, and was used without further purification. 384-well round bottom assay plates were prepared by the addition of 200 nl of a DMSO solution of compound at various concentrations to final inhibitor concentrations ranging from 100 μM to […]. Next, assay buffer (10 μl) containing substrate and ATP were added, followed by addition of 10 μl of enzyme in assay buffer. Final assays concentrations were: [E]=0.37 nM, [S]=1 μM, [ATP]=2 mM. The reactions were incubated at room temperature for 3 hours resulting in approximately 15% substrate phosphorylation and were terminated by the addition of 5 μl of stop buffer.

Chain of High affinity nerve growth factor receptor (P04629 whole entry): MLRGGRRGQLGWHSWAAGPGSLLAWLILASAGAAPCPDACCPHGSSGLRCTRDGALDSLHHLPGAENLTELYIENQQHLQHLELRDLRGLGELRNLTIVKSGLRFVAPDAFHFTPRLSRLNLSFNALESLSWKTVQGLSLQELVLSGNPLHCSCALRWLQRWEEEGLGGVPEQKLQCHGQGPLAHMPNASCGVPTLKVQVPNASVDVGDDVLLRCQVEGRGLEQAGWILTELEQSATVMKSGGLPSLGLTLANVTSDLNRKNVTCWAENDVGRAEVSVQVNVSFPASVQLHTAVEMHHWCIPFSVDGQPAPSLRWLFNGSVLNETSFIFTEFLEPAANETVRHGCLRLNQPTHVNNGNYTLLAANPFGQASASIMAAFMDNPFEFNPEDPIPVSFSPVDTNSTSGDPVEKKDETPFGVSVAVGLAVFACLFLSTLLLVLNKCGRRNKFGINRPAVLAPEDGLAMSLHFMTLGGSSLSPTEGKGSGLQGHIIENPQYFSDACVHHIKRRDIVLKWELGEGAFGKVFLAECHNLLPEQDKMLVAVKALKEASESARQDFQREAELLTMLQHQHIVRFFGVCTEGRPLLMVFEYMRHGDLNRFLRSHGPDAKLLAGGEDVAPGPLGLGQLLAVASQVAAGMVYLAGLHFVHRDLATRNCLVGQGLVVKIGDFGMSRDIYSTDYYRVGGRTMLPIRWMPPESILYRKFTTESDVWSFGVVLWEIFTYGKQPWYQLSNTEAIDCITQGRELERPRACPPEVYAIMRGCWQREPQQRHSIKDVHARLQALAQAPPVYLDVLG

EC50	SMILES
119 nM	CC(C)N(Cc1cccc(-c2nccs2)c1)C(=O)Nc1ccc(OC(F)(F)F)cc1
19.7 nM	CC1(C)CCN(c2ccc(SC(F)(F)F)cc2)C(=O)N1Cc1c[nH]c2ncccc12
102 nM	CC(C)N(Cc1cccc(-c2nccs2)c1)C(=O)Nc1cnc(C(C)(C)C)nc1
141 nM	CC(C)N(Cc1n[nH]c2ncccc12)C(=O)Nc1ccc(OC(F)(F)F)cc1

The remaining lines, values behind:

SMILES	EC50
CC(C)N(Cc1n[nH]c2ncccc12)C(=O)Nc1ccc(SC(F)(F)F)cc1	24.9 nM
C#CC(C)N(Cc1cccc(-c2nccs2)c1)C(=O)Nc1ccc(OC(F)(F)F)cc1 (configuration not stated)	48 nM
CC(C)N(Cc1cc(-c2nccs2)ccn1)C(=O)Nc1ccc(OC(F)(F)F)cc1	8080 nM
